Source: publication PMC9823097, “Dysregulation of PRMT5 in chronic lymphocytic leukemia promotes progression with high risk of Richter’s transformation” (Nature Communications, 2023)

Tests used:
[1] = target: 38 other methyltransferases (e.g DNMTs, MLL1-4 complexes, EZH1 and EZH2 complexes, NRMTs, NSD, SUVs, SMYs, SETs, PRDM9), and other members of the PRMT family; assay: Methyltransferase selectivity panel, 3H-SAM radioligand with filtration binding; type: biochemical
Description: (§1) For in vitro assays, the compound was stored in a 10 mM solution in DMSO. For in vivo assays, PRT382 was dissolved in a 0.5% methylcellulose, 0.1% tween solution, and administered as oral gavage. For Pharmacokinetic studies, PRT382 was formulated in 0.5% carboxymethylcellulose sodium salt + 0.5%Tween80 as a 1 mg/mL suspension for 10 mg/kg and was administered in a 10 mL/kg dose volume by oral gavage to CD-1 mice. Blood was collected at various time points after dosing into EDTA-K2 tubes, placed on ice, and stored at −80 °C prior to analysis by LC-MS/MS. For biochemical potency and selectivity, PRT382 was solubilized in 100% DMSO and diluted serially threefold. For assessment of selectivity, enzyme activity against a panel of 37 methyltransferases was evaluated using 3H-SAM as a radioligand probe with filtration binding. PRT382 was tested in duplicate at a final concentration of 10 µM. The percent of enzyme activity relative to DMSO control condition was determined for each enzyme.

[2] = Tolerability after 5 daily oral doses in WT CD-1 mice; type: in vivo; conditions: 10, 30 and 100 mg/kg
Description: as §1

Mec-1 CLL cell line = assay: Global symmetric dimethyl arginine (SDMA) western blot, Mec-1; type: cell-based; conditions: Mec-1, 72 h treatment
Text: Proteins extracted from whole-cell lysates were resolved by SDS-PAGE and transferred on nitrocellulose membrane as previously described. CpG685 oligonucleotide was obtained from the OSU Cytogenetics Core Lab. Antibodies used for immunoblots included anti-human PRMT5 (Abcam #ab109451), GAPDH (Millipore Sigma #MAB374), SDMA (Cell Signaling Technology #13222), c-Myc (Cell Signaling Technology #5605S), and β-Actin (Cell Signaling Technology #4967S). Cas9-mediated doxycycline-inducible knockout of PRMT5 utilized a targeted sgRNA (guide sequence: […], PAM: GGG).

[3] = Pharmacokinetic study, oral gavage to CD-1 mice, blood analyzed by LC-MS/MS; type: in vivo; conditions: for peak plasma level: WT CD-1 mice; for DNAUC / blood concentration at time point 0.25 / blood concentration at time point 0.5 / blood concentration at time point 1 h / blood concentration at time point 2 h / blood concentration at time point 4 h / blood concentration at time point 8 h / blood concentration at time point 12 h / blood concentration at time point 24 h / AUC / AUC(0-t) / Cmax / MRT / Tmax / half-life: 1d-single dose, male CD-1 mice, fed, blood analysis; for DNAUC / AUC / AUC(0-t) / Cmax / MRT / Tmax / half-life: 0.5%CMC+0.5%Tween80; for AUC / AUC(0-t) / Cmax / MRT / Tmax / half-life: mouse, whole blood, po
Description: as §1, with “[…] […]” for “For in vivo assays, PRT382 was dissolved in a 0.5% methylcellulose, 0.1% tween solution, and administered as oral gavage. For Pharmacokinetic studies, PRT382 was formulated in 0.5% carboxymethylcellulose sodium salt + 0.5%Tween80 as a 1 mg/mL suspension for 10 mg/kg and was administered in a 10 mL/kg dose volume by oral gavage to CD-1 mice.”

Jurkat = assay: Anti-proliferative activity, MTS assay, Jurkat; type: cell-based; conditions: Homo sapiens, T-cell line, read-out: PRT382 IC50 (anti-proliferative)
Description: (§2) Cell proliferation was assessed via MTS (3-[4,5-dimethylthiazol-2-yl]-5-[3-carboxymethoxyphenyl]-2-[4-sulfophenyl]-2H-tetrazolium) assay (Sigma), using the tetrazolium dye […]. Cell apoptosis was evaluated by Annexin V-FITC or PE and propidium iodide (PI) staining using FC500 cytometer (Beckman-Coulter, Indianapolis, IN) following the manufacturer’s procedure (BD Pharmingen, Billerica, MA)[55]. For cell cycle analysis, cells were fixed with cold ethanol overnight and then stained before analysis with 30 μg/mL propidium iodide (Invitrogen) and 200 μg/mL RNase (Sigma-Aldrich) in 0.1 % v/v Triton X-100 (Sigma-Aldrich). Cell cycle data analysis was performed using ModFit LT software (Verity Software House, Topsham, ME).

[4] = target: recombinant human PRMT5/MEP50 (Homo sapiens, UniProt O14744); assay: Filtration binding assay with recombinant human PRMT5/MEP50 (biochemical potency); conditions: histone H2A as the protein substrate
JVM-2 = assay: Anti-proliferative activity, MTS assay, JVM-2; type: cell-based; conditions: Homo sapiens, DLBCL, read-out: PRT382 IC50 (anti-proliferative)
Description: as §2

Sequence of recombinant human PRMT5/MEP50 (O14744 whole entry): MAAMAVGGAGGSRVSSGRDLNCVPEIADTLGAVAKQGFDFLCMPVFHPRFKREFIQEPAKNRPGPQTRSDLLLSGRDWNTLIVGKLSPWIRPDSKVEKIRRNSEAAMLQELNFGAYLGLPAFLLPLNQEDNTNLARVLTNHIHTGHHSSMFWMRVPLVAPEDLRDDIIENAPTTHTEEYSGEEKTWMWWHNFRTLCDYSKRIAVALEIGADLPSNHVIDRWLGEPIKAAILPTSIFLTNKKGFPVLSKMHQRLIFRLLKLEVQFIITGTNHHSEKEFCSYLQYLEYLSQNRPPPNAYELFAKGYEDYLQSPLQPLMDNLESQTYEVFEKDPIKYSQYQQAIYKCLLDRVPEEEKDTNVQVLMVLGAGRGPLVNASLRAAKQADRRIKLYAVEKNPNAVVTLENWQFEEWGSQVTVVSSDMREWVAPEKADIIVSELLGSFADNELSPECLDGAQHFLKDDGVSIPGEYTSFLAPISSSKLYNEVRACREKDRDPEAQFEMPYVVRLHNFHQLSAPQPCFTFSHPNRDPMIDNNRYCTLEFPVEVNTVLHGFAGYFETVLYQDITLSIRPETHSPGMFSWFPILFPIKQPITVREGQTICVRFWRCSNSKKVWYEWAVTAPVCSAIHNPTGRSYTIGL
Sequence of recombinant human PRMT5/MEP50 (Q9BQA1 whole entry partner): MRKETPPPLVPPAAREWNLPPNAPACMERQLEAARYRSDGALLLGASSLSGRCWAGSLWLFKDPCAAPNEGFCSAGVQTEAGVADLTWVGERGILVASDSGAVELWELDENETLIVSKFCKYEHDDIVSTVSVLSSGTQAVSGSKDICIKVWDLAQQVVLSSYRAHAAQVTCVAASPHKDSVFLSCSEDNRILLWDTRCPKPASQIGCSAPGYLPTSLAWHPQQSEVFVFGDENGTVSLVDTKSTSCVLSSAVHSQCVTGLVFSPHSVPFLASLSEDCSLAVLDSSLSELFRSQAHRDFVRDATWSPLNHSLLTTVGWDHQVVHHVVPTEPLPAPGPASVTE

With `CON=c1nc[nH]c2c1ccn2[C@@H]1O[C@H]([C@H](O)c2ccc(Cl)c(Cl)c2)[C@@H](O)[C@H]1O.Cl` [PRT382, (2 R,3 S,4 R,5 R)-2-[(R)-(3,4-dichlorophenyl)-hydroxy-methyl]-5-[(4Z)-4-methoxyimino-1H-pyrrolo[2,3-d]pyrimidin-7-yl]tetrahydrofuran-3,4-diol hydrochloride] the IC50 ([1]; 38 other methyltransferases and other PRMT family members, read-out: IC50 against other methyltransferases) was greater than 1000 nM, the “inhibition of other tested methyltransferases” value ([1]; PRT382 at 10 uM) was no more than 20% and the tolerability [2] was “well-tolerated”. The observable toxicity ([2]; after 5 daily oral doses) was “without observable toxicity”, the “lowest dose with decrease in global SDMA residues” value (Mec-1 CLL cell line) was 100 nM and the peak plasma level ([3]; 10 mg/kg oral) was 12 µM. The DNAUC ([3]; 10 mg/kg) was 1180 kg·ng·h/mL/mg, the “blood concentration at time point 0.25” value ([3]; 10 mg/kg) was 2530 and the “blood concentration at time point 0.5” value ([3]; 10 mg/kg) was 3240. The “blood concentration at time point 1 h” value ([3]; 10 mg/kg) was 2973, the “blood concentration at time point 2 h” value ([3]; 10 mg/kg) was 1733 and the “blood concentration at time point 4 h” value ([3]; 10 mg/kg) was 908. For the same molecule, the “blood concentration at time point 8 h” value ([3]; 10 mg/kg) was 530, the “blood concentration at time point 12 h” value ([3]; 10 mg/kg) was 46 and the blood concentration at time point 24 h ([3]; 10 mg/kg) was 0 ng/mL. The peak plasma level ([3]; 30 mg/kg oral) was 32 µM, the DNAUC ([3]; 30 mg/kg) was 763 kg·ng·h/mL/mg and the “blood concentration at time point 0.25” value ([3]; 30 mg/kg) was 3753. The “blood concentration at time point 0.5” value ([3]; 30 mg/kg) was 4560, the “blood concentration at time point 1 h” value ([3]; 30 mg/kg) was 4613 and the “blood concentration at time point 2 h” value ([3]; 30 mg/kg) was 2990. The “blood concentration at time point 4 h” value ([3]; 30 mg/kg) was 2027, the “blood concentration at time point 8 h” value ([3]; 30 mg/kg) was 1350 and the “blood concentration at time point 12 h” value ([3]; 30 mg/kg) was 138. For the same molecule, the blood concentration at time point 24 h ([3]; 30 mg/kg) was 0 ng/mL, the peak plasma level ([3]; 100 mg/kg oral) was 75 µM and the DNAUC ([3]; 100 mg/kg) was 1700 kg·ng·h/mL/mg. The “blood concentration at time point 0.25” value ([3]; 100 mg/kg) was 20267, the “blood concentration at time point 0.5” value ([3]; 100 mg/kg) was 25300 and the “blood concentration at time point 1 h” value ([3]; 100 mg/kg) was 25500. The “blood concentration at time point 2 h” value ([3]; 100 mg/kg) was 21367, the “blood concentration at time point 4 h” value ([3]; 100 mg/kg) was 16300 and the “blood concentration at time point 8 h” value ([3]; 100 mg/kg) was 10253. For the same molecule, the “blood concentration at time point 12 h” value ([3]; 100 mg/kg) was 1753, the blood concentration at time point 24 h ([3]; 100 mg/kg) was 7 ng/mL and the AUC ([3]; 10 mg/kg) was 11700 ng·h/mL. The AUC(0-t) ([3]; 10 mg/kg) was 11600 ng·h/mL, the Cmax ([3]; 10 mg/kg) was 3240 ng/mL and the MRT ([3]; 10 mg/kg) was 3.34 h. For the same molecule, the Tmax ([3]; 10 mg/kg) was 30 min, the half-life ([3]; 10 mg/kg) was 112 min and the AUC ([3]; 30 mg/kg) was 22900 ng·h/mL. The AUC(0-t) ([3]; 30 mg/kg) was 22300 ng·h/mL, the Cmax ([3]; 30 mg/kg) was 4670 ng/mL and the MRT ([3]; 30 mg/kg) was 4 h. It also gave a Tmax ([3]; 30 mg/kg) of 49.8 min, a half-life ([3]; 30 mg/kg) of 135 min and an AUC ([3]; 100 mg/kg) of 170000 ng·h/mL. For the same molecule, the AUC(0-t) ([3]; 100 mg/kg) was 170000 ng·h/mL, the Cmax ([3]; 100 mg/kg) was 25800 ng/mL and the MRT ([3]; 100 mg/kg) was 4.6 h. The Tmax ([3]; 100 mg/kg) was 40.2 min, the half-life ([3]; 100 mg/kg) was 91.8 min and the IC50 (Jurkat) was greater than 1000 nM. It also gave an IC50 [4] of 2.8 nM and an IC50 (JVM-2) of 10 nM.
